{"source": "patent US8481263B2", "about": "“Bead-ligand-nascent protein complexes” (Ambergen, priority 2007, dated 2013)", "target": "T1, PKCα (Homo sapiens, UniProt P17252)", "T1 construct": "isolate and photo-release endogenous PKCa from the undiluted detergent fractionated HeLa cell extracts; endogenous in cells; host or cells: HeLa cells (ATCC)", "test": "PKCα sub-cellular translocation measured by kinase activity after photocleavable antibody isolation", "format": "cell-based", "settings": "cultured HeLa cells stimulated with 200 nM PMA for 5 min; detergent fractionated; kinase activity of PC-antibody isolated PKCα; n=4", "description": "Cultured HeLa cells (ATCC; Manassas, Va.) were stimulated for 5 min with 200 nM Phorbol-12-Myristate-13-Acetate (PMA; EMD Biosciences, Inc., San Diego, Calif.) and subsequently detergent fractionated into sub-cellular compartments according to reported procedures [Ramsby et al. (1994) Electrophoresis 15, 265-277; Ramsby & Makowski. (1999) Methods Mol Biol 112, 53-66; Chiang et al. (2000) J Biochem Biophys Methods 46, 53-68]. PMA is a potent activator of PKCα and is well known to cause translocation of the kinase from the cytosolic to the membrane sub-cellular compartments [Ross & Joyner. (1997) Endothelium 5, 321-332; Bazan & Rapoport. (1996) J Pharmacol Toxicol Methods 36, 87-95; Yazlovitskaya & Melnykovych. (1995) Cancer Lett 88, 179-183].\nA photocleavable antibody conjugated solid affinity matrix was prepared and used to isolate and photo-release the antigen into solution essentially as described in Example 2 except that in this case, a photocleavable anti-IgG secondary antibody was used to immobilize the unlabeled primary antibody onto the solid affinity matrix. This antibody affinity matrix was used to isolate and photo-release endogenous PKCa from the undiluted detergent fractionated HeLa cell extracts. […]", "data": [{"compound": "CCCCCCCCCCCCCC(=O)O[C@@H]1[C@@H](C)[C@@]2(O)[C@@H](C=C(CO)C[C@]3(O)C(=O)C(C)=C[C@@H]23)[C@@H]2C(C)(C)[C@]12OC(C)=O", "note": "[PMA, Phorbol-12-Myristate-13-Acetate]", "values": [{"measurement": "PKCα distribution, cytosol", "value": "16±4", "unit": "%"}, {"measurement": "PKCα distribution, membrane", "value": "84±3", "unit": "%"}]}]}
